What was measured:
THR-β = biological target: T1, THR-β (Homo sapiens, UniProt P10828); assay: Binding activity to the thyroxine receptor beta; conditions: for THR-α/-β selectivity: ratio of binding IC50; for IC50: read-out: IC50 THR-β binding force
T1 sequence (P10828 1-461): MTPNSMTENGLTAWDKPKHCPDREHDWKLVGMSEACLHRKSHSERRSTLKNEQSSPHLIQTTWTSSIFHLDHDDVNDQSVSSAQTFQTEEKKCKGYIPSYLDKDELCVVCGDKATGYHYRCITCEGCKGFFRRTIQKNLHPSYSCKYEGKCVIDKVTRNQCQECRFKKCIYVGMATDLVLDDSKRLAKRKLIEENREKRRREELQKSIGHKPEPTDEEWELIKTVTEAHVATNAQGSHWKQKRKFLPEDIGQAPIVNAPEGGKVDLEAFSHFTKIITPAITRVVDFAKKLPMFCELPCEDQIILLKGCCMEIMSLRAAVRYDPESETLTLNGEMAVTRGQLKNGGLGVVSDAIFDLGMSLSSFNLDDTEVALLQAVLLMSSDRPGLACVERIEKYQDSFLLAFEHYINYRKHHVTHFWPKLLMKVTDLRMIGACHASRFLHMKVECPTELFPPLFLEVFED

[1] = Pharmacokinetic evaluation in SD rats; assay type: in vivo, rat; conditions: 2.0 mg/kg intragastric; for half-life: male, rat, plasma, po
Procedure: Drug Preparation: a certain amount of the drug was taken and added into a 2% Klucel LF+0.1% Tween 80 aqueous solution, to prepare a clear solution or a uniform suspension.
Dosage: SD rats were fasted overnight and given the drug by intragastric infusion at an administrated dose of 2 mg/kg and an administrated volume of 10 mL/kg each.
Operation: rats were dosed by intragastric infusion with the compounds. […] The heparinized sample tubes were then stored at −20° C., and the rats were allowed to eat food 2 h after the dosage.
Determination of contents of the compounds to be tested in the plasma of rats after intragastric infusion of the drugs at different concentrations: the plasma samples were thawed at room temperature, 50 μL each was taken and added into 130 μL of an internal standard working solution (1000 ng/mL, acetonitrile, tolbutamide), and the mixture was whirled for about 1 min and then centrifugated at 4° C. and 13000 rpm for 10 min. 50 μL of the supernatant was taken and mixed with 100 μL of 50% acetonitrile water, and then introduced for LC/MS/MS analysis.

SMILES	THR-α/-β selectivity (THR-β)	IC50 (THR-β)	Curve area [1]	Time to peak [1]	half-life [1]	Peak blood drug concentration [1]
N#Cc1nn(-c2cc(Cl)c(Oc3n[nH]c(=O)c4c3CCCC4)c(Cl)c2)c(=O)[nH]c1=O [Compound 3]	>8.1 factor	1230 nM	–	–	–	–
CC1(C)CCc2c(Oc3c(Cl)cc(-n4cc(C#N)c(=O)[nH]c4=O)cc3Cl)n[nH]c(=O)c21 [Compound 6]	–	–	9242 ± 1245 ng·h/mL	5.33 ± 1.15 h	5.14 ± 0.83 h	–
N#Cc1nn(-c2cc(Cl)c(Oc3n[nH]c(=O)c4c(Cl)cccc34)c(Cl)c2)c(=O)[nH]c1=O [Compound 7]	>6.80 factor	1470 nM	–	–	–	–
O=c1cnn(-c2cc(Cl)c(Oc3n[nH]c(=O)c4ccccc34)c(Cl)c2)c(=O)[nH]1 [Compound 11]	–	262 nM	–	–	–	–
CC(C)c1cc(Oc2c(Cl)cc(-n3nc(C#N)c(=O)[nH]c3=O)cc2Cl)n[nH]c1=O [Reference compound, 2-[3,5-Dichloro-4-(5-isopropyl-6-oxo-1,6-dihydropyridazin-3-yloxy)phenyl]-3,5-dioxo-2,3,4,5-tetrahydro[1,2,4]triazine-6-carbonitrile, reference compound]	–	–	12854 ± 961 ng·h/mL	5.3 ± 1.15 h	3.53 ± 0.42 h	1163 ± 97.1 ng/mL
